The source of these data is patent publication US20250304549A1, “HYDROXYAMIDE DERIVATIVE AND USE THEREOF” (SICHUAN HUIYU PHARMACEUTICAL CO., LTD., priority 2022, published 2025).

Counter-ions that a name gives are not always drawn.

For one experiment, the system named is NCI-H69 cells. As to the kind of experiment: In vitro cell inhibition assay - NCI-H69 cell proliferation (CellTiter-Glo). In kind it is cell-based. Particulars: Homo sapiens, NCI-H69, H69 small cell lung cancer cell proliferation. The protocol: 4. In Vitro Cell Inhibition Assay—NCI-H69 Cell Proliferation
The inhibitory effect of the compounds on cell proliferation was assessed by detecting the number of viable cells using the CellTiter-Glo® reagent. NCI-H69 cells in the logarithmic growth phase were collected and inoculated into transparent bottom 96-well plates at a density 1×10^3 cells per well with 100 μL medium, and incubated at 37° C., 5% CO2 overnight. The compounds were sequentially diluted in a 5-fold concentration gradient with DMSO to obtain 8 different concentrations These were then diluted with RPMI-640 (containing 20% FBS) cell culture medium to obtain the compounds working solution (2×), which was added to the cell supernatant at 100 μL per well. The incubation continued for 7 days at 37° C., 5% CO2. The plate was then removed and equilibrated to room temperature (25° C.) along with the CellTiter-Glo® mixing reagent for 10-30 minutes. After centrifugation at 1200 rpm for 5 minutes, 120 μL of the culture medium was carefully aspirated from each well, and 60 μL of CellTiter-Glo® reagent was added. The cells were thoroughly mixed with the CellTiter-Glo® mixing reagent using a microplate shaker for 2 min. and then incubated at room temperature for 10 min. The 96-well plate was subsequently placed on a multifunctional microplate reader to record the Luminescence values (RLU).
The inhibition rate was calculated using the following formula: […]
(§1) Note: ‘Negative’ refers to the group without inhibitors; ‘Blank’ refers to the group without cells.
(§2) The IC50 value was determined by fitting the inhibition rate by GraphPad Prism software.

The next experiment addresses LSD1 (Homo sapiens (Human), UniProt O60341). As to the kind of experiment: In vitro enzyme inhibition assay - LSD1 (HTRF). In kind it is biochemical. The protocol:
1. In Vitro Enzyme Inhibition Assay—LSD1
Initially, a master solution of 90 μM test compound (dissolved in DMSO) was prepared and sequentially diluted with DMSO in a 5-fold concentration gradient to yield a total of 9 concentrations of the compound working solution 1 (90×). Subsequently these 9 concentrations of working solution 1 were sequentially diluted by a 30-fold concentration gradient, i.e., 2 μL of working solution 1 was aspirated and added to 58 μL of Buffer, mixed on a vortex mixer with sufficient shaking to yield 9 concentrations of the screening test compound working solution 2 (3×). […] The mixture was incubated at room temperature for 15 minutes. […] Afterward, 2 μL of a termination solution (containing 5.4 mM 2-PCPA) was added to each well, mixed evenly, and incubated for another 15 minutes. Finally 4 μL of a pre-mixed antibody solution of Eu-anti H3K4 (PerkinElmer, TRF0404-D) and allophycocyanin (Prozyme, PJ27S) (1:1) was added to each well, mixed evenly, and incubated for 60 minutes. […] The inhibition rate was calculated through the following formula: […]
(§3) Note: ‘Negative’ refers to the group without the inhibitor; ‘Blank’ refers to the group without the enzyme.
(§4) The IC50 value was calculated by fitting the inhibition rate by GraphPad Prism software, employing log (inhibitor) vs. response-Variable Slope (four parameters) model.
(In general: In TR-FRET formats the signal depends on donor and acceptor labels being close together.)

The next experiment concerns the target pan-HDAC. As to the kind of experiment: In vitro enzyme inhibition assay - HDAC (HDAC-Glo I/II), pan-HDAC. In kind it is biochemical. The protocol: 2. In Vitro Enzyme Inhibition Assay—HDAC
The effect of the compound on the enzymatic activity of pan-HDAC and two isoforms (HDAC1 and HDAC8) was examined using the HDAC-Glo I/II Assay and Screening System assay to assess the level of inhibition of HDAC protease activity and selectivity in each isoform. The proteins and detection reagents were from the HDAC-Glo™ I/II Assay and Screening System (Promega). A 1 mM stock solution of the compound was prepared in DMSO and diluted in a 5-fold gradient to create a series of 8 concentrations, and a specific volume of the highest concentration was diluted 25 times with HDAC Buffer to obtain 4× working solution of the compound. […] The 384-well plate was then read on a multifunctional microplate reader, with the Luminescence channel selected to record Luminescence values (RLU). The inhibition rate was calculated using the following formula: […]
as §3, §4

Another experiment concerns NCI-H1417 cells. The experiment can be described thus: In vitro cell inhibition assay - H1417 cell proliferation (CellTiter-Glo). Format: cell-based. The settings on record: Homo sapiens, NCI-H1417, H1417 small cell lung cancer cell proliferation. How it is done:
3. In Vitro Cell Inhibition Assay—H1417 Cell Proliferation
The inhibitory effect of the compounds on cell proliferation was assessed by detecting the number of viable cells using the CellTiter-Glo® reagent. […] The compounds were sequentially diluted in a 5-fold concentration gradient with DMSO to obtain 8 different concentrations o. These were diluted with BEGM (containing 10% FBS) cell culture medium to obtain the compound working solution (2×), which was added to the cell supernatant at 100 μL per well. The incubation continued for 7 days at 37° C., 5% CO2. The plate was then removed and equilibrated to room temperature (25° C.) along with the CellTiter-Glo® mixing reagent for 10-30 minutes. After centrifugation, 100 μL of the culture medium was carefully aspirated from each well, and 85 μL of CellTiter-Glo® reagent was added. The cells were thoroughly mixed with the CellTiter-Glo® mixing reagent using a microplate shaker for 2 min. and then incubated at room temperature for 10 min. The 96-well plate was subsequently placed on a multifunctional microplate reader to record the Luminescence values (RLU). • The inhibition rate was calculated using the following formula: […]
as §1, §2
A general note: In ATP-based viability assays light output follows the ATP content of the culture.

Consider `COc1ccc(-c2c(OCCCCCCC(=O)NO)cc(N3C4CCC3CC(N)C4)nc2-c2ccc(C#N)c(F)c2)cc1O` (stereo not drawn) [Example 9, 7-((6-(3-Amino-8-azabicyclo[3.2.1]octan-8-yl)-2-(4-cyano-3-fluorophenyl)-3-(3-hydroxy-4-methoxyphenyl)pyridin-4-yl)oxy)-N-hydroxyheptanamide hydrochloride], for which the IC50 (as a rule, the concentration that inhibits the measured activity by half) was determined as 3100 nM in the experiment on NCI-H69 cells, 1.82 nM at LSD1, 25.3 nM against pan-HDAC and 915 nM in the experiment on NCI-H1417 cells.
Regarding `COc1ccc(-c2c(OCCCCCCC(=O)NO)cc(N3CC4CC3CC4N)nc2-c2ccc(C#N)c(F)c2)cc1O` (stereo not drawn) [Example 15, 7-((6-(5-Amino-2-azabicyclo[2.2.1]heptan-2-yl)-2-(4-cyano-3-fluorophenyl)-3-(3-hydroxy-4-methoxyphenyl)pyridin-4-yl)oxy)-N-hydroxyheptanamide hydrochloride], the IC50 is 2990 nM in the experiment on NCI-H69 cells, 1.45 nM against LSD1, 27.5 nM at pan-HDAC and 221 nM in the experiment on NCI-H1417 cells.
With `N#Cc1ccc(-c2nc(N3CCC(N)CC3)cc(OCCCCCCC(=O)NO)c2-c2ccc(OCCO)cc2)cc1F` [Example 17, 7-((6-(4-Aminopiperidin-1-yl)-2-(4-cyano-3-fluorophenyl)-3-(4-(2-hydroxyethoxy)phenyl)pyridin-4-yl)oxy)-N-hydroxyheptanamide formate], the IC50 is 3270 nM in the experiment with NCI-H69 cells, 23.8 nM at LSD1, 21.6 nM against pan-HDAC and greater than 1000 nM in the experiment with NCI-H1417 cells.
On to `N#Cc1ccc(-c2nc(N3CC4CC3CC4N)n3ccnc3c2-c2ccc(OCCCCCCC(=O)NO)c(O)c2)cc1F` (stereo not drawn) [Example 22, 7-(4-(5-(5-(5-Amino-2-azabicyclo[2.2.1]heptan-2-yl)-7-(4-cyano-3-fluorophenyl)imidazo[1,2-c]pyrimidin-8-yl)-2-hydroxyphenoxy)-N-hydroxyheptanamide hydrochloride], for which the IC50 in the experiment on NCI-H69 cells is 4730 nM; at LSD1, 0.31 nM; on pan-HDAC, 144 nM; in the experiment on NCI-H1417 cells it was 106 nM.
With `COc1ccc(-c2c(-c3ccc(C#N)c(F)c3)nc(N3CCC(NCc4ccc(/C=C/C(=O)NO)cc4)CC3)n(C)c2=O)cc1O` [Example 67, (E)-3-(4-(((1-(4-(4-Cyano-3-fluorophenyl)-5-(3-hydroxy-4-methoxy-phenyl)-1-methyl-6-oxo-1,6-dihydro-pyrimidin-2-yl)piperidin-4-yl)amino)methyl)phenyl)-N-hydroxy-acrylamide formate], the half-inhibitory concentration (IC50) in the experiment on NCI-H69 cells turned out to be 444 nM; at LSD1, 1.89 nM; against pan-HDAC, 39 nM; in the experiment with NCI-H1417 cells it was 21.2 nM.
For `COc1ccc(-c2cnc(N3CCC(C)(NCc4ccc(/C=C/C(=O)NO)nc4)CC3)c(C#N)c2-c2ccc(C#N)c(F)c2)cc1O` [Example 213, (E)-3-(5-(((1-(3-Cyano-4-(4-cyano-3-fluorophenyl)-5-(3-hydroxy-4-methoxyphenyl)pyridin-2-yl)-4-methylpiperidin-4-yl)amino)methyl)pyridin-2-yl)-N-hydroxyacrylamide formate], the 50% inhibitory concentration (IC50) in the experiment with NCI-H69 cells worked out at 76.1 nM; against LSD1 it was 2.12 nM; against pan-HDAC, 19.7 nM; with NCI-H1417 cells, 7.32 nM.
As to `CC1(NCc2ccc(/C=C/C(=O)NO)cc2)CCN(c2ncc(-c3ccc(OC(F)(F)F)c(O)c3)c(-c3ccc(C#N)c(F)c3)c2C#N)CC1` [Example 214, (E)-3-(4-(((1-(3-Cyano-4-(4-cyano-3-fluorophenyl)-5-(3-hydroxy-4-(trifluoromethoxy)phenyl)pyridin-2-yl)-4-methylpiperidin-4-yl)amino)methyl)phenyl)-N-hydroxyacrylamide formate], the IC50 in the experiment with NCI-H69 cells was found to be 496 nM; on LSD1, 4.98 nM; on pan-HDAC, 143 nM; with NCI-H1417 cells it was 7.9 nM.
Turning to `CC(C)(O)COc1ccc(-c2cnc(N3CCC(C)(NCc4ccc(/C=C/C(=O)NO)cc4)CC3)c(C#N)c2-c2ccc(C#N)c(F)c2)cc1O` [Example 215, (E)-3-(4-(((1-(3-Cyano-4-(4-cyano-3-fluorophenyl)-5-(3-hydroxy-4-(2-hydroxy-2-methylpropoxy)phenyl)pyridin-2-yl)-4-methylpiperidin-4-yl)amino)methyl)phenyl)-N-hydroxyacrylamide formate], the concentration for half-maximal inhibition (IC50) came out at 295 nM with NCI-H69 cells, 0.39 nM against LSD1, 68 nM against pan-HDAC and 2.65 nM with NCI-H1417 cells.
On to `COc1ccc(-c2cnc(N3CCC(NCc4ccc(SCC(=O)NO)cc4)CC3)c(C#N)c2-c2ccc(C#N)c(F)c2)cc1O` [Example 216, 2-((4-((1-(3-cyano-4-(4-cyano-3-fluorophenyl)-5-(3-hydroxy-4-methoxyphenyl)pyridin-2-yl)piperidin-4-yl)amino)methyl)phenyl) thio)-N-hydroxyacetamide formate], for which the IC50 in the experiment on NCI-H69 cells was found to be 51.6 nM; on LSD1 it was 0.15 nM; on pan-HDAC, 3.57 nM; in the experiment with NCI-H1417 cells it was 6.06 nM.
For the compound `COc1ccc(-c2cnc(N3CCC(NCc4ccc(CC(F)C(=O)NO)cc4)CC3)c(C#N)c2-c2ccc(C#N)c(F)c2)cc1O` (stereo not drawn) [Example 219, 3-(4-((1-(3-Cyano-4-(4-cyano-3-fluorophenyl)-5-(3-hydroxy-4-methoxyphenyl)pyridin-2-yl)piperidin-4-yl)amino)methyl) phenyl)-2-fluoro-N-hydroxypropanamide formate], the IC50 with NCI-H69 cells turned out to be 149 nM; at LSD1, 0.21 nM; at pan-HDAC, 9.28 nM; in the experiment on NCI-H1417 cells, 7.13 nM.
Consider `COc1ccc(-c2cnc(N3CCC(NCc4ccc(/C=C(\C)C(=O)NO)nc4)CC3)c(C#N)c2-c2ccc(C#N)c(F)c2)cc1O` [Example 220, (E)-3-(5-(((1-(3-Cyano-4-(4-cyano-3-fluorophenyl)-5-(3-hydroxy-4-methoxyphenyl)pyridin-2-yl)piperidin-4-yl)amino)methyl)pyridin-2-yl)-N-hydroxy-2-methylacrylamide formate], for which the IC50 came to 2290 nM in the experiment on NCI-H69 cells, 0.42 nM at LSD1, 937 nM on pan-HDAC and 6.86 nM in the experiment on NCI-H1417 cells.
The corresponding values for `COc1ccc(-c2cnc(N3CCC(NCc4ccc(CCC(=O)NO)cc4Cl)CC3)c(C#N)c2-c2ccc(C#N)c(F)c2)cc1O` [Example 222, 3-(3-chloro-4-((1-(3-cyano-4-(4-cyano-3-fluorophenyl)-5-(3-hydroxy-4-methoxyphenyl)pyridin-2-yl)piperidin-4-yl)amino)methyl) phenyl)-N-hydroxypropanamide formate] are 35.8 nM, 0.03 nM, 11.5 nM and 6.42 nM.
